Data on 17 substances can be found in patent US11760889B2, “Unsaturated fatty alcohol derivatives from natural oil metathesis” (priority 2012, dated 2023).

Data set [1] can be described thus: Anionic emulsifier: emulsion stability testing of EW concentrate (modified ASTM E1116-98).
Description: Turbidity changes are noted and recorded.
A Mohr pipette is used to feed EW concentrate to each cylinder. Cylinders are stoppered and inverted ten times, then allowed to stand for 0.5, 1, and 24 h while recording stability at each time as type and % separation.
Spontaneity is recorded according to the following criteria: (1) poor: very thin emulsion cloud with major separation of oil droplets; (2) fair: thin emulsion cloud with minor separation of oil droplets; (3) good: thin emulsion cloud reaches the bottom of the cylinder without separation of any type; (4) excellent: thick emulsion cloud reaches the bottom of the cylinder without separation of any type.
The nature of data set [2]: Water-soluble herbicide formulation testing (standard dilution test, emulsion stability).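 Note: diluted in a 50 mL Nessler cylinder held at 30 °C.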 The class given is physicochemical. The arrangement: key to Emulsion stability, mL separation, 24 h: Tr = trace. The settings on record: 342 ppm water. The protocol: Surfactant candidates for water soluble herbicide applications are examined as a replacement for the anionic, nonionic, or anionic/nonionic blend portion and compared to a known industry adjuvant standard for use in paraquat, a water soluble herbicide concentrate formulation. A standard dilution test is conducted whereby the concentrates are diluted in water to determine if solubility is complete.
The cylinder is stoppered and inverted ten times. Solubility is recorded as complete or incomplete. Cylinders are allowed to stand and the amount (in mL) and type of separation are recorded after 30 min., 1 h, 2 h, and 24 h. Results of the solubility testing appear in Table 3 below.
An eight to ten mole alkyl phenol ethoxylate surfactant (0.7 g) is added and vigorously mixed for 30 s. Test sample (0.7 g) is added and mixing resumes for 30 s.
Test sample (0.7 g) is added and vigorously mixed for 30 s. Sodium linear alkylbenzene sulfonate (“NaLAS,” 0.7 g) is added and mixing resumes for 30 s.

Setting [3] is: Adjuvant (anionic/nonionic) test sample.

As to “5 Mole Ethoxylated C12 Alcohol, Ammonium Sulfate [A12-11]”, the results for the “% Separation, 1 h” value in data set [1] (34 ppm water) and in data set [1] (1000 ppm water) were 3.6% and 2.1%, respectively. Besides, the “% Separation, 24 h” value is 3.8% in data set [1] (34 ppm water) and 3% in data set [1] (1000 ppm water).
The corresponding values for “3 Mole Ethoxylated C12 Alcohol, Ammonium Sulfate [A12-8]” are 3%, 3.7%, 4% and 3.9%.
Consider “3 Mole Ethoxylated C10 Alcohol, Sodium Sulfate [A10-9]”, for which the “% Separation, 1 h” value in data set [1] (34 ppm water) was 4%; in data set [1] (1000 ppm water), 3.5%. For the same substance, the “% Separation, 24 h” value in data set [1] (34 ppm water) is on record as 3.6%; in data set [1] (1000 ppm water), 3.9%. For the same substance, the “Emulsion stability, mL separation, 1 h” value in data set [2] (setting [3]), in data set [2] (Anionic test sample) and in data set [2] (Nonionic test sample) was 0 mL throughout. Moreover, the “Emulsion stability, mL separation, 24 h” value in data set [2] (setting [3]), in data set [2] (Anionic test sample) and in data set [2] (Nonionic test sample) was 0 mL in each case.
Consider “15 Mole Ethoxylated C10 Alcohol, Sodium Sulfate [A10-18]”, for which the “% Separation, 1 h” value amounted to 2.5% in data set [1] (34 ppm water) and 4% in data set [1] (1000 ppm water). Moreover, the “% Separation, 24 h” value in data set [1] (34 ppm water) is listed as 2.8%; in data set [1] (1000 ppm water) it was 4%. For the same substance, the “Emulsion stability, mL separation, 1 h” value in data set [2] (setting [3]), in data set [2] (Anionic test sample) and in data set [2] (Nonionic test sample) was 0 mL in each case. For the same substance, the “Emulsion stability, mL separation, 24 h” value in data set [2] (setting [3]), in data set [2] (Anionic test sample) and in data set [2] (Nonionic test sample) was 0 mL each time.
In the case of “1 Mole Ethoxylated C10 Alcohol, Sodium Sulfate [A10-6]”, the “% Separation, 1 h” value in data set [1] (34 ppm water) is on record as 4%; in data set [1] (1000 ppm water), 3%. The figures for the “% Separation, 24 h” value in data set [1] (34 ppm water) and in data set [1] (1000 ppm water) were 4.9% and 3.2%, respectively. Further, the “Emulsion stability, mL separation, 1 h” value in data set [2] (setting [3]), in data set [2] (Anionic test sample) and in data set [2] (Nonionic test sample) was 0 mL in each case. In addition, the figures for the “Emulsion stability, mL separation, 24 h” value in data set [2] (setting [3]), in data set [2] (Anionic test sample) and in data set [2] (Nonionic test sample) were 0 mL, 0 mL and “Tr”, respectively.
As to “7 Mole Ethoxylated C12 Alcohol, Ammonium Sulfate [A12-14]”, the “% Separation, 1 h” value in data set [1] (34 ppm water) is reported as 3.9%; in data set [1] (1000 ppm water), 2.8%. Further, the “% Separation, 24 h” value in data set [1] (34 ppm water) is listed as 4.1%; in data set [1] (1000 ppm water), 3.5%.
In the case of “15 Mole Ethoxylated C10 Alcohol, Ammonium Sulfate [A10-17]”, the “% Separation, 1 h” value in data set [1] (34 ppm water) and in data set [1] (1000 ppm water) was 1.5% in each case. Besides, the “% Separation, 24 h” value was found to be 2.2% in data set [1] (34 ppm water) and 2% in data set [1] (1000 ppm water).
For the substance “15 Mole Ethoxylated C12 Alcohol, Sodium Sulfate [A12-18]”, the “% Separation, 1 h” value in data set [1] (34 ppm water) is reported as 3%; in data set [1] (1000 ppm water), 2.5%. In addition, the figures for the “% Separation, 24 h” value in data set [1] (34 ppm water) and in data set [1] (1000 ppm water) were 4.3% and 3.9%, respectively. The “Emulsion stability, mL separation, 1 h” value in data set [2] (setting [3]), in data set [2] (Anionic test sample) and in data set [2] (Nonionic test sample) was 0 mL in each case. In addition, the “Emulsion stability, mL separation, 24 h” value in data set [2] (setting [3]), in data set [2] (Anionic test sample) and in data set [2] (Nonionic test sample) was 0 mL in each case.
Turning to “7 Mole Ethoxylated C10 Alcohol, Ammonium Sulfate [A10-14]”, in data set [1] (34 ppm water), the “% Separation, 1 h” value is 3.5% and the “% Separation, 24 h” value is listed as 4%. Further, in data set [1] (1000 ppm water), the “% Separation, 1 h” value was found to be 3.5% and the “% Separation, 24 h” value worked out at 4.1%.
“5 Mole Ethoxylated C12 Alcohol, Sodium Sulfate [A12-12]”: the results for the “% Separation, 1 h” value in data set [1] (34 ppm water) and in data set [1] (1000 ppm water) were 4.1% and 3%, respectively. Further, the “% Separation, 24 h” value is 4.5% in data set [1] (34 ppm water) and 3.8% in data set [1] (1000 ppm water). Further, the “Emulsion stability, mL separation, 1 h” value in data set [2] (setting [3]), in data set [2] (Anionic test sample) and in data set [2] (Nonionic test sample) was 0 mL in each case. Moreover, the “Emulsion stability, mL separation, 24 h” value in data set [2] (setting [3]), in data set [2] (Anionic test sample) and in data set [2] (Nonionic test sample) was 0 mL each time.
In the case of “7 Mole Ethoxylated C12 Alcohol, Sodium Sulfate [A12-15]”, the “% Separation, 1 h” value in data set [1] (34 ppm water) and in data set [1] (1000 ppm water) was 3.5% in each case. The figures for the “% Separation, 24 h” value in data set [1] (34 ppm water) and in data set [1] (1000 ppm water) were 3.9% and 4%, respectively. For the same substance, the “Emulsion stability, mL separation, 1 h” value in data set [2] (setting [3]), in data set [2] (Anionic test sample) and in data set [2] (Nonionic test sample) was 0 mL in each case. Further, the “Emulsion stability, mL separation, 24 h” value in data set [2] (setting [3]), in data set [2] (Anionic test sample) and in data set [2] (Nonionic test sample) was 0 mL throughout.
Take “5 Mole Ethoxylated C10 Alcohol, Ammonium Sulfate [A10-11]”: in data set [1] (34 ppm water), the “% Separation, 1 h” value is on record as 3.9% and the “% Separation, 24 h” value came out at 5%. In addition, in data set [1] (1000 ppm water), the “% Separation, 1 h” value came to 2.5% and the “% Separation, 24 h” value worked out at 3.1%.
For “1 Mole Ethoxylated C10 Alcohol, Ammonium Sulfate [A10-5]”, in data set [1] (34 ppm water), the “% Separation, 1 h” value stood at 3.8% and the “% Separation, 24 h” value is 4.3%. In data set [1] (1000 ppm water), the “% Separation, 1 h” value was found to be 2.8% and the “% Separation, 24 h” value was 3%.
With “7 Mole Ethoxylated C10 Alcohol, Sodium Sulfate [A10-15]”, the entries for the “% Separation, 1 h” value in data set [1] (34 ppm water) and in data set [1] (1000 ppm water) were 3.5% and 3%, respectively. Further, the results for the “% Separation, 24 h” value in data set [1] (34 ppm water) and in data set [1] (1000 ppm water) were 3.9% and 4.1%, respectively. The “Emulsion stability, mL separation, 1 h” value in data set [2] (setting [3]), in data set [2] (Anionic test sample) and in data set [2] (Nonionic test sample) was 0 mL in each case. Moreover, the “Emulsion stability, mL separation, 24 h” value in data set [2] (setting [3]), in data set [2] (Anionic test sample) and in data set [2] (Nonionic test sample) was 0 mL throughout.
For “3 Mole Ethoxylated C10 Alcohol, Ammonium Sulfate [A10-8]”, in data set [1] (34 ppm water), the “% Separation, 1 h” value is reported as 3.5% and the “% Separation, 24 h” value was 3.9%. In data set [1] (1000 ppm water), the “% Separation, 1 h” value turned out to be 3.5% and the “% Separation, 24 h” value was 3.5%.
Regarding “15 Mole Ethoxylated C12 Alcohol, Ammonium Sulfate [A12-17]”, in data set [1] (34 ppm water), the “% Separation, 1 h” value is listed as 4% and the “% Separation, 24 h” value was 3.8%. Moreover, in data set [1] (1000 ppm water), the “% Separation, 1 h” value is recorded as 3.5% and the “% Separation, 24 h” value came out at 4.2%.
The corresponding values for “1 Mole Ethoxylated C12 Alcohol, Ammonium Sulfate [A12-5]” are 4%, 4.1%, 3% and 3.5%.
